Test results reported in US20110003757A1, “PHARMACEUTICAL COMPOSITIONS FOR TREATING FATTY LIVER DISEASE” (ASTELLAS PHARMA INC., priority 2008, published 2011).

What was measured:
[1] = system: SGLT; conditions: disclosed in Patent Documents 3, 5 and 6; cited from earlier work
[2] = system: KK-A^y mice; assay: Liver triglyceride content in nonalcoholic simple fatty liver model (KK-A^y mice); type: in vivo; conditions: for Effect on liver triglyceride content (in words): versus vehicle; for Liver triglyceride content: mean±standard error
Protocol: KK-A^y mice (female, purchased from CLEA Japan, Inc.) were used. The mice were fed with CMF (for special breeding, purchased from Oriental Yeast Co., Ltd., Japan) ad libitum. At 14 weeks of age, they were measured for their body weight, blood glucose levels, plasma insulin levels, plasma triglyceride levels and plasma alanine aminotransferase (ALT), and then divided into two groups such that these items were equal between the groups (8 animals per group). The first group was administered with vehicle (0.5% methylcellulose) at a dose of 10 mL/kg, and the second group was administered with a choline salt of (1S)-1,5-anhydro-1-[5-(azulen-2-ylmethyl)-2-hydroxyphenyl]-D-glucitol (i.e., a choline salt of Compound A) at a dose of 3 mg/kg (calculated as Compound A), each being administered orally once a day for 2 weeks. On the day following the final administration, the liver was collected from each mouse under ether anesthesia, frozen in liquid nitrogen and then stored at −80° C.
Liver triglyceride content was measured in the following manner.
1. A portion (50 to 150 mg) of each liver frozen and stored at −80° C. was taken to an Assist tube. 2. After addition of methanol (2 mL), the liver sample was homogenized with a POLYTRON (KINEMATICA). 3. To the homogenate, chloroform (4 mL) was added and vigorously stirred at room temperature for 10 minutes. 4. Milli-Q water (1 mL) was further added and vigorously stirred. 5. The sample was centrifuged in a low speed centrifuge (Hitachi, Ltd., Japan) (2,500 rpm, 5 min, room temperature). 6. A portion of the lower layer (total volume: 4.5 mL) was taken to an Eppendorf tube and evaporated in a centrifugal evaporator (Sakuma Seisakusho, Japan) to remove the solvent. 7. The residue in the Eppendorf tube was dissolved again by addition of ethanol (10 μL). 8. Triglyceride E-Test Wako reagent (1 mL, Wako Pure Chemical Industries, Ltd., Japan) was added to the resulting solution, and triglycerides were quantified. 9. From the result obtained above, the triglyceride content per g of liver was calculated for each sample. The data were expressed as mean±standard error.
(§1) The test was conducted in the same manner as shown in Example 1, except that this test was conducted with 3 groups of 8 animals, and the first group was administered with vehicle (0.5% methylcellulose) at a dose of 10 mL/kg, the second group was administered with a co-crystal (1:1 molar ratio) of (1S)-1,5-anhydro-1-[3-(1-benzothiophen-2-ylmethyl)-4-fluorophenyl]-D-glucitol (Compound B) and L-proline at a dose of 3 mg/kg (calculated as Compound B), and the third group was administered with a control compound, 2-(4-methoxybenzyl)phenyl 6-O-ethoxycarbonyl-β-D-glucopyranoside (hereinafter also referred to as Compound X, whose structural formula is shown below) disclosed in Patent Document 1 (supra) at a dose of 36 mg/kg, each being administered orally once a day for 2 weeks. Then, the liver triglyceride content was measured for each group in the same manner as shown in Example 1.
as §1, with “Compound B” for “(1S)-1,5-anhydro-1-[3-(1-benzothiophen-2-ylmethyl)-4-fluorophenyl]-D-glucitol (Compound B)”, “T-1095 disclosed in Patent Document 2 (supra), i.e., 3-(benzo[b]furan-5-yl)-2′,6′-dihydroxy-4′-methylpropiophenone 2′-O-(6-O-methoxycarbonyl)-β-D-glucopyranoside” for “2-(4-methoxybenzyl)phenyl 6-O-ethoxycarbonyl-β-D-glucopyranoside”, “Y,” for “X,”, “below)” for “below) disclosed in Patent Document 1 (supra)”, “34” for “36”
The test was conducted in the same manner as shown in Example 1. […]

[3] = system: MCD diet-fed Wistar rats; assay: Nonalcoholic steatohepatitis model, MCD diet-fed rats: liver histopathology scores; type: in vivo; conditions: co-crystal of Compound B and L-proline 3 mg/kg orally once a day for 16 weeks, five-point scale 0-4, versus MCD diet vehicle group
Protocol: This test was conducted by reference to a document (J. Hepatol., 2003, 39, 756-764). Wistar rats (male, purchased from Charles River Japan, Inc.) were used. The rats were fed with MCD diet (methionine/choline-deficient diet, MP Biochemicals) or normal control diet (methionine/choline control diet, MP Biochemicals) ad libitum. At 9 weeks of age, they were measured for their body weight and divided into groups of equal body weight, followed by initiation of the test (10 animals per group). The first group was fed with normal control diet and administered with vehicle (0.5% methylcellulose) at a dose of 5 mL/kg. The second and third groups were fed with MCD diet, and the second group was administered with vehicle (0.5% methylcellulose) at a dose of 5 mL/kg, while the third group was administered with a co-crystal (1:1 molar ratio) of Compound B and L-proline at a dose of 3 mg/kg (calculated as Compound B). Each drug was administered orally once a day for 16 weeks. On the day following the final administration, the liver was collected from each rat under ether anesthesia and a portion of the liver was fixed in 10% neutral buffered formalin. […]

[4] = system: CDAA diet-fed Wistar rats; assay: Nonalcoholic steatohepatitis model, CDAA diet-fed rats: hepatic fibrosis score; type: in vivo; conditions: Example 5, FIG. 3; co-crystal of Compound B and L-proline 3 mg/kg orally once a day for 5 weeks; five-point scale 0-4; versus CDAA diet vehicle group
Protocol: This test was conducted by reference to a document (Biochem Biophys Res Commun., 2004, 315(1), 187-195). Wistar rats (male, purchased from Charles River Japan, Inc.) were used. The rats were fed with CDAA diet (choline-deficient L-amino acid-defined diet (Choline Deficient and Iron Supplemented L-Amino Acid Defined Rat Diet, Dyets)) or normal control diet (Choline and Iron Supplemented L-Amino Acid Defined Rat Diet, Dyets) ad libitum. At 9 weeks of age, they were measured for their body weight and divided into groups of equal body weight, followed by initiation of the test (10 animals per group). […] The second and third groups were fed with CDAA diet, and the second group was administered with vehicle (0.5% methylcellulose) at a dose of 5 mL/kg, while the third group was administered with a co-crystal (1:1 molar ratio) of Compound B and L-proline at a dose of 3 mg/kg (calculated as Compound B). […] After a portion of the liver was fixed in 10% neutral buffered formalin, paraffin sections (3 μm) were prepared in a standard manner and subjected to van Gieson staining Fibrosis was evaluated by reference to the Brunt classification (Clinical Practice Guidelines for NASH/NAFLD, edited by the Japan Society of Hepatology, 2006), based on a five-point scale of 0, 1, 2, 3 and 4 (see Table 4).

[5] = system: db/db mice; conditions: disclosed in Patent Document 2; cited from earlier work

OC[C@H]1O[C@@H](c2cc(Cc3cc4cccccc-4c3)ccc2O)[C@H](O)[C@@H](O)[C@@H]1O [Compound A, (1S)-1,5-anhydro-1-[5-(azulen-2-ylmethyl)-2-hydroxyphenyl]-D-glucitol]
SGLT inhibitory activity [1]: shows SGLT inhibitory activity | Effect on liver triglyceride content (in words) ([2]; Example 1, 3 mg/kg orally once a day for 2 weeks): significantly improved | Liver triglyceride content ([2]; Example 1, choline salt of Compound A, 3 mg/kg (calculated as Compound A) orally once a day for 2 weeks, vehicle 60.0 ± 8.4): 30.7 ± 5.4 mg/g liver

OC[C@H]1O[C@@H](c2ccc(F)c(Cc3cc4ccccc4s3)c2)[C@H](O)[C@@H](O)[C@@H]1O [Compound B, (1S)-1,5-anhydro-1-[3-(1-benzothiophen-2-ylmethyl)-4-fluorophenyl]-D-glucitol]
SGLT inhibitory activity [1]: shows SGLT inhibitory activity | Pathological score of inflammatory cell infiltration ([3]; Example 4, FIG. 1): significantly improved | Pathological score of hepatic fibrosis ([3]; Example 4, FIG. 2): significantly improved | Effect on liver triglyceride content (in words) ([2]; Example 2, 3 mg/kg orally once a day for 2 weeks): significantly improved | Liver triglyceride content ([2]; Example 2, co-crystal of Compound B and L-proline, 3 mg/kg (calculated as Compound B) orally once a day for 2 weeks, vehicle 52.8 ± 4.9): 34.8 ± 1.9 mg/g liver | Effect on liver triglyceride content (in words) ([2]; Example 3, 3 mg/kg orally once a day for 2 weeks): significantly improved | Liver triglyceride content ([2]; Example 3, co-crystal of Compound B and L-proline, 3 mg/kg (calculated as Compound B) orally once a day for 2 weeks, vehicle 59.7 ± 6.2): 41.2 ± 5.1 mg/g liver | Pathological score of hepatic fibrosis [4]: significantly improved

CCOc1ccc(Cc2cc([C@@H]3O[C@H](CO)[C@@H](O)[C@H](O)[C@H]3O)ccc2Cl)cc1 [Compound C, (1S)-1,5-anhydro-1-[4-chloro-3-(4-ethoxybenzyl)phenyl]-D-glucitol]
Effect on liver triglyceride content (in words) ([2]; Example 6, 3 mg/kg orally once a day for 2 weeks): significantly improved | Liver triglyceride content ([2]; Example 6, 3 mg/kg orally once a day for 2 weeks, vehicle 60.2 ± 7.1): 28.6 ± 3.9 mg/g liver

CCOC(=O)OC[C@H]1O[C@@H](Oc2ccccc2Cc2ccc(OC)cc2)[C@H](O)[C@@H](O)[C@@H]1O [Compound X, 2-(4-methoxybenzyl)phenyl 6-O-ethoxycarbonyl-β-D-glucopyranoside, reference compound]
Liver triglyceride content ([2]; Example 2, 3 mg/kg orally once a day for 2 weeks, vehicle 52.8 ± 4.9): 57.9 ± 4.5 mg/g liver | Effect on liver triglyceride content (in words) ([2]; Example 2, 36 mg/kg orally once a day for 2 weeks): no significant effect | Effect on liver triglyceride content (in words) ([2]; Example 3, 34 mg/kg orally once a day for 2 weeks): no significant effect

COC(=O)OC[C@H]1O[C@@H](Oc2cc(C)cc(O)c2C(=O)CCc2ccc3occc3c2)[C@H](O)[C@@H](O)[C@@H]1O [Compound Y, 3-(benzo[b]furan-5-yl)-2′,6′-dihydroxy-4′-methylpropiophenone 2′-O-(6-O-methoxycarbonyl)-β-D-glucopyranoside, reference compound]
Liver triglyceride content ([2]; Example 3, 34 mg/kg orally once a day for 2 weeks, vehicle 59.7 ± 6.2): 59.7 ± 8.9 mg/g liver | Blood triglyceride levels [5]: reduced blood triglyceride levels
